Experimental data: US10131679B2, “Substituted dihydropyrrolopyrazole compound” (UBE INDUSTRIES, LTD., priority 2014, dated 2018)

Legend:
[1] = system: mouse imiquimod-induced psoriasis model; test: Ear thickening suppression test using mouse imiquimod-induced psoriasis model; type: in vivo; settings: topical, 120 h, thickness measured on day 5, BALB/c mice, read-out: rate of inhibition of increase in right auricle thickness; for inhibition in vivo at 0.01 %: application of a 0.01% methanol solution for 4 days; for inhibition in vivo at 1 %: application of a 1% solution in methanol for 4 days
Experimental: Ear Thickening Suppression Test Using Mouse Imiquimod-Induced Psoriasis Model
An imiquimod-induced psoriasis model test was carried out by modifying the method of Leslie van der Fits et al. (J. Immunol. 182, 5836 (2009)). BALB/c mice were used (female, supplied by Charles River Laboratories Japan, Inc.) as laboratory animals. On the start day of the test, the thicknesses of the right auricles of the mice were measured with a thickness gauge (model SMD-565J manufactured by TECLOCK Corp.). A test compound solution or only a solvent was applied or orally administered, and after 60 minutes, 5 mg of imiquimod (Beselna Cream 5% manufactured by Mochida Pharmaceutical Co., Ltd.) was applied to the insides of the right auricles. The test compound solution or solvent administration and the imiquimod application were carried out for 4 days, and the thicknesses of the right auricles were measured again on day 5. When increase in the thicknesses of the right auricles of the solvent-administered group on day 5 was defined as 100%, the rate of inhibition of increase (%) at each dose of the test compound was calculated.

CDK7 = target: T1, CDK7 (Homo sapiens, UniProt P50613); test: CDK7 enzyme inhibition test; type: biochemical; settings: Ki=IC50/(1+S/Km); 33P bound to MBP, [γ-33P]ATP, 30° C. for 20 minutes; read-out: Ki value of CDK7 inhibitory activity
T1 construct: purchased Carna Biosciences, Inc. 04-108
T1 sequence (P50613 whole entry): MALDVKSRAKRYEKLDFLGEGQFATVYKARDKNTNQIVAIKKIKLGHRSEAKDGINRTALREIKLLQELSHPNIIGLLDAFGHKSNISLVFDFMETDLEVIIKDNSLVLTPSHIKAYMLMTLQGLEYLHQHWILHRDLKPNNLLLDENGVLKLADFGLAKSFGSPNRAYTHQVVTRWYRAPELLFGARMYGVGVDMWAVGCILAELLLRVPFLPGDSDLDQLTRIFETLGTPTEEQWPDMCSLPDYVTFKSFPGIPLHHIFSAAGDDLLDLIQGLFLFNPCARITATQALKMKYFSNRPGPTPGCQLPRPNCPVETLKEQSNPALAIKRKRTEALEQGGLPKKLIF
T1 sequence (P51946 whole entry partner): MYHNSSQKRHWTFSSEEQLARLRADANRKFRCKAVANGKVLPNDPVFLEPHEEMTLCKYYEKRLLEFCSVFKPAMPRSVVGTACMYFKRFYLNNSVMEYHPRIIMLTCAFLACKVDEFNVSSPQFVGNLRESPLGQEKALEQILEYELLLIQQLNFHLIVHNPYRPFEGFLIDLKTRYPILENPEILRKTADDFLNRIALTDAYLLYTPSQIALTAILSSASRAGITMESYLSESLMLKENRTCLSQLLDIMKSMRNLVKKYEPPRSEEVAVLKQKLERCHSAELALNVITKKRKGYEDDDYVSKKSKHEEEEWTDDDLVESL
T1 sequence (P51948 whole entry partner): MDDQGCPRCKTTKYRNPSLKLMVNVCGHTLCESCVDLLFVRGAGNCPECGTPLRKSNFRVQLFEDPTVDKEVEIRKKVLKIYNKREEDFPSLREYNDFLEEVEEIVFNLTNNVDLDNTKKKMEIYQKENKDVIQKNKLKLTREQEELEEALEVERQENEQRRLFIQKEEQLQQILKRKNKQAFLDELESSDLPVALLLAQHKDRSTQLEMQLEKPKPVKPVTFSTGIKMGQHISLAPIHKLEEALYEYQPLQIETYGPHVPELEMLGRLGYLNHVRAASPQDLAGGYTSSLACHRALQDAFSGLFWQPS
Outline: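 Recombinant CDK7 with MBP substrate and [γ-33P]ATP (500 μM solution, diluted into the mix) in HEPES pH 7.4/DTT/Triton X-100/MgCl2, 20 min at 30 °C. TCA-precipitated 33P-MBP counted by scintillation; IC50 from inhibition, Ki = IC50/(1+S/Km).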

## CC(C)(CO)C(NC(=O)N1Cc2c(NC(=O)C3([Si](C)(C)C)CCC3)n[nH]c2C1(C)C)c1ccccc1 (racemic) [IV-354, N-(3-Hydroxy-2,2-dimethyl-1-phenylpropyl)-6,6-dimethyl-3-[1-(trimethylsilyl)cyclobutanecarboxamido]-4,6-dihydropyrrolo[3,4-c]pyrazole-5(1H)-carboxamide]
[1]
  inhibition in vivo at 0.01 %: ≥ 50%

## CC(C)(CO)C(NC(=O)N1Cc2c(NC(=O)C3([Si](C)(C)C)CCC3)n[nH]c2C1(C)C)c1ccccc1 (single isomer, unassigned; (-)) [IV-673, (−)-N-(3-Hydroxy-2,2-dimethyl-1-phenylpropyl)-6,6-dimethyl-3-[1-(trimethylsilyl)cyclobutanecarboxamido]-4,6-dihydropyrrolo[3,4-c]pyrazole-5(1H)-carboxamide]
[1]
  inhibition in vivo at 0.01 %: ≥ 50%
CDK7
  Ki: ≤ 50 nM

## CC1(C)c2[nH]nc(NC(=O)C(C)(C)[Si](C)(C)C)c2CN1C(=O)N[C@H](CO)c1ccccc1 [II-114, (S)—N-(2-Hydroxy-1-phenylethyl)-6,6-dimethyl-3-[2-methyl-2-(trimethylsilyl)propanamido]-4,6-dihydropyrrolo[3,4-c]pyrazole-5(1H)-carboxamide]
CDK7
  Ki: ≤ 50 nM

## CC1(C)c2[nH]nc(NC(=O)C3([Si](C)(C)C)CC3)c2CN1C(=O)N[C@H](CO)c1ccccc1 [III-114, (S)—N-(2-Hydroxy-1-phenylethyl)-6,6-dimethyl-3-[1-(trimethylsilyl)cyclopropanecarboxamido]-4,6-dihydropyrrolo[3,4-c]pyrazole-5(1H)-carboxamide]
CDK7
  Ki: ≤ 50 nM

## CC1(C)c2[nH]nc(NC(=O)C3([Si](C)(C)C)CCC3)c2CN1C(=O)O[C@H](CO)c1ccccc1 [IV-2, (S)-2-Hydroxy-1-phenylethyl 6,6-dimethyl-3-[1-(trimethylsilyl)cyclobutanecarboxamido]-4,6-dihydropyrrolo[3,4-c]pyrazole-5(1H)-carboxylate]
CDK7
  Ki: ≤ 50 nM

## CC1(C)c2[nH]nc(NC(=O)C3([Si](C)(C)C)CCC3)c2CN1C(=O)N[C@H](CO)c1ccccc1 [IV-114, (S)—N-(2-Hydroxy-1-phenylethyl)-6,6-dimethyl-3-[1-(trimethylsilyl)cyclobutanecarboxamido]-4,6-dihydropyrrolo[3,4-c]pyrazole-5(1H)-carboxamide]
[1]
  inhibition in vivo at 1 %: ≥ 50%
CDK7
  Ki: ≤ 50 nM

## CC[Si](C)(C)C1(C(=O)Nc2n[nH]c3c2CN(C(=O)N[C@H](CO)c2ccccc2)C3(C)C)CCC1 [IV-117, (S)-3-[1-(Ethyldimethylsilyl)cyclobutanecarboxamido]-N-(2-hydroxy-1-phenylethyl)-6,6-dimethyl-4,6-dihydropyrrolo[3,4-c]pyrazole-5(1H)-carboxamide]
CDK7
  Ki: ≤ 50 nM

## CN(C(=O)N1Cc2c(NC(=O)C3([Si](C)(C)C)CCC3)n[nH]c2C1(C)C)[C@H](CO)c1ccccc1 [IV-119, (S)—N-(2-Hydroxy-1-phenylethyl)-N,6,6-trimethyl-3-[1-(trimethylsilyl)cyclobutanecarboxamido]-4,6-dihydropyrrolo[3,4-c]pyrazole-5(1H)-carboxamide]
CDK7
  Ki: ≤ 50 nM

## COC[C@@H](NC(=O)N1Cc2c(NC(=O)C3([Si](C)(C)C)CCC3)n[nH]c2C1(C)C)c1ccccc1 [IV-123, (S)—N-(2-Methoxy-1-phenylethyl)-6,6-dimethyl-3-[1-(trimethylsilyl)cyclobutanecarboxamido]-4,6-dihydropyrrolo[3,4-c]pyrazole-5(1H)-carboxamide]
[1]
  inhibition in vivo at 1 %: ≥ 50%
CDK7
  Ki: ≤ 50 nM

## CCOC[C@@H](NC(=O)N1Cc2c(NC(=O)C3([Si](C)(C)C)CCC3)n[nH]c2C1(C)C)c1ccccc1 [IV-139, (S)—N-(2-Ethoxy-1-phenylethyl)-6,6-dimethyl-3-[1-(trimethylsilyl)cyclobutanecarboxamido]-4,6-dihydropyrrolo[3,4-c]pyrazole-5(1H)-carboxamide]
CDK7
  Ki: ≤ 50 nM

## CC(C)(O)[C@@H](NC(=O)N1Cc2c(NC(=O)C3([Si](C)(C)C)CCC3)n[nH]c2C1(C)C)c1ccccc1 [IV-171, (S)—N-(2-Hydroxy-2-methyl-1-phenylpropyl)-6,6-dimethyl-3-[1-(trimethylsilyl)cyclobutanecarboxamido]-4,6-dihydropyrrolo[3,4-c]pyrazole-5(1H)-carboxamide]
CDK7
  Ki: ≤ 50 nM

## CC1(C)c2[nH]nc(NC(=O)C3([Si](C)(C)C)CCC3)c2CN1C(=O)N[C@H](CCO)c1ccccc1 [IV-227, (R)—N-(3-Hydroxy-1-phenylpropyl)-6,6-dimethyl-3-[1-(trimethylsilyl)cyclobutanecarboxamido]-4,6-dihydropyrrolo[3,4-c]pyrazole-5(1H)-carboxamide]
[1]
  inhibition in vivo at 1 %: ≥ 50%
CDK7
  Ki: ≤ 50 nM

## CC1(C)c2[nH]nc(NC(=O)C3([Si](C)(C)C)CCC3)c2CN1C(=O)N[C@H](CCCO)c1ccccc1 [IV-283, (R)—N-(4-Hydroxy-1-phenylbutyl)-6,6-dimethyl-3-[1-(trimethylsilyl)cyclobutanecarboxamido]-4,6-dihydropyrrolo[3,4-c]pyrazole-5(1H)-carboxamide]
CDK7
  Ki: ≤ 50 nM

## CC1(C)c2[nH]nc(NC(=O)C3([Si](C)(C)C)CCC3)c2CN1C(=O)N[C@H](CCCCO)c1ccccc1 [IV-291, (R)—N-(5-Hydroxy-1-phenylpentyl)-6,6-dimethyl-3-[1-(trimethylsilyl)cyclobutanecarboxamido]-4,6-dihydropyrrolo[3,4-c]pyrazole-5(1H)-carboxamide]
CDK7
  Ki: ≤ 50 nM

## CC1(C)c2[nH]nc(NC(=O)C3([Si](C)(C)C)CCC3)c2CN1C(=O)NCCO [IV-438, N-(2-Hydroxyethyl)-6,6-dimethyl-3-[1-(trimethylsilyl)cyclobutanecarboxamido]-4,6-dihydropyrrolo[3,4-c]pyrazole-5(1H)-carboxamide]
CDK7
  Ki: ≤ 50 nM

## CC1(C)c2[nH]nc(NC(=O)C3([Si](C)(C)C)CCC3)c2CN1C(=O)NCC(O)c1ccccc1 (stereo not shown) [IV-450, N-(2-Hydroxy-2-phenylethyl)-6,6-dimethyl-3-[1-(trimethylsilyl)cyclobutanecarboxamido]-4,6-dihydropyrrolo[3,4-c]pyrazole-5(1H)-carboxamide]
CDK7
  Ki: ≤ 50 nM

## C[C@@H](CO)NC(=O)N1Cc2c(NC(=O)C3([Si](C)(C)C)CCC3)n[nH]c2C1(C)C [IV-455, (S)—N-(1-Hydroxypropan-2-yl)-6,6-dimethyl-3-[1-(trimethylsilyl)cyclobutanecarboxamido]-4,6-dihydropyrrolo[3,4-c]pyrazole-5(1H)-carboxamide]
CDK7
  Ki: ≤ 50 nM

## CC(C)[C@@H](CO)NC(=O)N1Cc2c(NC(=O)C3([Si](C)(C)C)CCC3)n[nH]c2C1(C)C [IV-475, (S)—N-(1-Hydroxy-3-methylbutan-2-yl)-6,6-dimethyl-3-[1-(trimethylsilyl)cyclobutanecarboxamido]-4,6-dihydropyrrolo[3,4-c]pyrazole-5(1H)-carboxamide]
CDK7
  Ki: ≤ 50 nM

## CC1(C)c2[nH]nc(NC(=O)C3([Si](C)(C)C)CCC3)c2CN1C(=O)N[C@H](CO)C1CCCCC1 [IV-495, (S)—N-(1-Cyclohexyl-2-hydroxyethyl)-6,6-dimethyl-3-[1-(trimethylsilyl)cyclobutanecarboxamido]-4,6-dihydropyrrolo[3,4-c]pyrazole-5(1H)-carboxamide]
CDK7
  Ki: ≤ 50 nM

## CC1(C)c2[nH]nc(NC(=O)C3([Si](C)(C)C)CCC3)c2CN1C(=O)C(CO)c1ccccc1 (stereo not shown) [IV-632, N-[5-(3-Hydroxy-2-phenylpropanoyl)-6,6-dimethyl-1,4,5,6-tetrahydropyrrolo[3,4-c]pyrazol-3-yl]-1-(trimethylsilyl)cyclobutanecarboxamide]
CDK7
  Ki: ≤ 50 nM

## CC1(C)c2[nH]nc(NC(=O)C3([Si](C)(C)C)CCC3)c2CN1C(=O)NC(c1ccccc1)C1(CO)CCC1 (stereo not shown) [IV-718, N-{[1-(Hydroxymethyl)cyclobutyl](phenyl)methyl}-6,6-dimethyl-3-[1-(trimethylsilyl)cyclobutanecarboxamido]-4,6-dihydropyrrolo[3,4-c]pyrazole-5(1H)-carboxamide]
[1]
  inhibition in vivo at 0.01 %: ≥ 50%

## CC(C)(CO)C(NC(=O)N1Cc2c(NC(=O)C3([Si](C)(C)C)CCC3)n[nH]c2C1(C)C)c1cccc(F)c1 (stereo not shown) [IV-918, N-[1-(3-Fluorophenyl)-3-hydroxy-2,2-dimethylpropyl]-6,6-dimethyl-3-[1-(trimethylsilyl)cyclobutanecarboxamido]-4,6-dihydropyrrolo[3,4-c]pyrazole-5(1H)-carboxamide]
[1]
  inhibition in vivo at 0.01 %: ≥ 50%

## CC(C)(CO)C(NC(=O)N1Cc2c(NC(=O)C3([Si](C)(C)C)CCC3)n[nH]c2C1(C)C)c1ccc(F)cc1 (stereo not shown) [IV-946, N-[1-(4-Fluorophenyl)-3-hydroxy-2,2-dimethylpropyl]-6,6-dimethyl-3-[1-(trimethylsilyl)cyclobutanecarboxamido]-4,6-dihydropyrrolo[3,4-c]pyrazole-5(1H)-carboxamide]
[1]
  inhibition in vivo at 0.01 %: ≥ 50%

## CC1(C)c2[nH]nc(NC(=O)C3([Si](C)(C)C)CCC3)c2CN1C(=O)[C@H](OC(F)(F)F)c1ccccc1 [IV-1184, (R)—N-{6,6-Dimethyl-5-[2-phenyl-2-(trifluoromethoxy)acetyl]-1,4,5,6-tetrahydropyrrolo[3,4-c]pyrazol-3-yl}-1-(trimethylsilyl)cyclobutanecarboxamide]
[1]
  inhibition in vivo at 0.01 %: ≥ 50%
